Patent US8481459B2, “Chemical inhibitors of ethylene biosynthesis” (Academia Sinica, priority 2010, dated 2013)

Tested on: gene expression in etiolated eto1-4 seedlings
Assay: Transcriptional profiling (ATH1 GeneChip microarray) of etiolated eto1-4 seedlings
Type: in vivo, Arabidopsis thaliana
Settings: ratio eto1-4 treated to eto1-4 (no treatment)
Experimental: For chemical treatments, seeds were sown on 0.5×MS agar medium supplemented with 10 μM chemicals (AVG, compounds 9393, 9370, and 7303) or DMSO (as control). Arabidopsis seeds were stratified in the dark at 4° C. for 4 days, then germinated in the dark for 3 days at 22° C. Approximately 2,000 etiolated seedlings of the wild type or eto1-4 were used to collect tissues for preparation of total RNA in each microarray experiment with Arabidopsis ATH1 GeneChip (Affymetrix). Extraction of RNA followed an established protocol (Chang, et al. (1993) Plant Mol. Biol. Rep. 11, 113-117). Total RNA (10 μg) was used to prepare biotinylated cRNA for hybridization to ATH1 GeneChip in the experiments disclosed herein. Experiments were repeated by 2 independent biological duplicates, and candidate genes present in both experiments were selected for further analysis. The MASS method was used for data analysis and normalization by all sample medium. Candidate genes were selected by the following criteria. First, genes with 1.5-fold differential expression between the wild type and eto1-4 were selected as the master gene pool, which was then used for comparison in treatments with AVG and individual exemplary compounds. Data were presented in hierarchical clustering and Venn diagram format. Agilent GeneSpring GX and Bioconductor software were used to analyze the expression profile data. Gene Ontology descriptions were generated by GeneSpring GX and further referred to the TAR GO database. Raw data are available in the GEO database (http://www.ncbi.nlm.nih.gov/geo) with Accession no. GSE20897.
The filtered and normalized expression data set from 22810 probes on the ATH1 Genechip was used for hierarchical clustering of gene expression profiles for comparison between AVG and the exemplary invention compounds in eto1-4. It was identified that 1,446 genes show at least 1.5-fold difference in expression between the WT and eto1-4 and used them as the master gene pool for clustering analysis (FIG. 7A). […] These genes likely contribute to the etiolated phenotype of eto1-4 by responding to elevated endogenous ethylene. To determine whether the exemplary compounds have specific r overlapping functions with AVG to suppress the eto1-4 phenotype, genes that are regulated by individual exemplary invention compounds and AVG for Venn diagram analysis were clustered (FIG. 7B). More than 63% of genes (356/561 for compound 9393; 389/561 for compound 9370; 399/561 for compound 7303; FIG. 7B) with expression associated with AVG were co-regulated by the exemplary invention compounds, which indicates an overlap function in suppression of the ethylene phenotype in eto1-4. […] Next genes co-regulated by all of the exemplary invention compounds and AVG were examined by performing a clustering analysis using the co-regulated genes identified in FIG. 7B: 356 (compound 9393 vs AVG), 389 (compound 9370 vs AVG) and 399 genes (compound 7303 vs AVG). It was uncovered that 276 genes were co-regulated by all of the exemplary invention compounds and AVG (FIG. 7C and Table 2). On the basis of GO descriptions generated by Gene Spring GX and TAIR database, the 276 genes were divided into subgroups related to their biological functions (Table 2). […] In addition, stress- and pathogenesis-related genes were among the co-regulated genes, possibly because ethylene is involved in both biotic and abiotic stresses.
Genes (1446 non-redundant loci) were selected by 1.5-fold differential expression between eto1-4 and WT as the master pool for analysis. These genes were used for comparison between chemical treatments by AVG and the exemplary invention compounds. The finalized 276 genes that are co-regulated by AVG and all of the exemplary invention compounds are shown. Locus ID also present in Nemhauser et al. (Nemhauser, et al. (2006) Cell 126, 467-475).

SMILES: COc1ccc(C2CC(=O)c3cnc(Nc4ccccc4)nc3C2)cc1 (centres unmarked) [Compound 7303]
- Signal Fold Change AT3G14850, unknown biological function: 0.13
- Signal Fold Change AT3G15890 protein kinase: 2.14
- Signal Fold Change AT3G16450 jacalin lectin protein: 3.13
- Signal Fold Change AT3G16470 jacalin lectin protein: 6.91
- Signal Fold Change AT3G16690, unknown biological function: 4.80
- Signal Fold Change AT3G17680, unknown biological function: 0.17
- Signal Fold Change AT3G20130 cytochrome P450: 1.89
- Signal Fold Change AT3G21770 peroxidase 30: 1.84
- Signal Fold Change AT3G22620 lipid transfer protein: 2.70
- Signal Fold Change AT3G23150 ethylene receptor, putative (ETR2): 0.18
- Signal Fold Change AT3G23800, unknown biological function: 0.33
- Signal Fold Change AT3G24670, unknown biological function: 0.38
- Signal Fold Change AT3G25710 bHLH protein: 2.51
- Signal Fold Change AT3G25730 AP2-containing transcription factor: 0.21
- Signal Fold Change AT3G25980 mitotic spindle checkpoint protein: 2.49
- Signal Fold Change AT3G27580 protein kinase: 0.46
- Signal Fold Change AT3G28290, unknown biological function: 0.27
- Signal Fold Change AT3G29250 short-chain dehydrogenase: 20.57
- Signal Fold Change AT3G30775 proline oxidase, mitochondrial: 4.43
- Signal Fold Change AT3G43270 pectinesterase protein: 0.33
- Signal Fold Change AT3G44820, response to light stimulus, phototropic-responsive NPH3 protein: 2.99
- Signal Fold Change AT3G44990 endo-xyloglucan transferase: 0.21
- Signal Fold Change AT3G45710 proton-dependent oligopeptide transport (POT) protein: 4.30
- Signal Fold Change AT3G46130 myb transcription factor (MYB48): 2.20
- Signal Fold Change AT3G46700 UDP-glucosyl transferase: 7.33
- Signal Fold Change AT3G47210, unknown biological function: 3.50
- Signal Fold Change AT3G47250, unknown biological function: 5.15
- Signal Fold Change AT3G49780 phytosulfokines 3 (PSK3): 9.23
- Signal Fold Change AT3G50660 steroid 22-alpha-hydroxylase: 4.40
- Signal Fold Change AT3G51410, unknown biological function: 0.21
- Signal Fold Change AT3G51970, unknown biological function: 3.02
- Signal Fold Change AT3G52180 protein tyrosine phosphatase: 0.22
- Signal Fold Change AT3G52920 expressed protein (defense response): 3.88
- Signal Fold Change AT3G53540, unknown biological function: 0.41
- Signal Fold Change AT3G56480, unknown biological function: 2.86
- Signal Fold Change AT3G58710 WRKY transcription factor: 2.61
- Signal Fold Change AT3G59370, unknown biological function: 3.33
- Signal Fold Change AT3G59710 short-chain dehydrogenase: 0.48
- Signal Fold Change AT3G59900, unknown biological function: 0.39
- Signal Fold Change AT3G60520, unknown biological function: 0.30
- Signal Fold Change AT3G61160 shaggy-related protein kinase beta/ASK-beta (ASK2): 5.02
- Signal Fold Change AT4G00730 anthocyaninless2: 0.54
- Signal Fold Change AT4G01410, unknown biological function: 0.54
- Signal Fold Change AT4G03140 short-chain dehydrogenase: 0.23
- Signal Fold Change AT4G08300, unknown biological function: 4.13
- Signal Fold Change AT4G09570 calcium-dependent protein kinase: 0.34
- Signal Fold Change AT4G10910, unknown biological function: 4.49
- Signal Fold Change AT4G11190 disease resistance-responsive protein: 9.71
- Signal Fold Change AT4G11280 ACC synthase 6: 2.00
- Signal Fold Change AT4G11310 cysteine proteinase: 17.92
- Signal Fold Change AT4G12080, unknown biological function: 2.09
- Signal Fold Change AT4G12410 auxin-responsive protein: 3.30
- Signal Fold Change AT4G12480 lipid transfer protein: 0.06
- Signal Fold Change AT4G13210, unknown biological function: 0.27
- Signal Fold Change AT4G15550 UDP-glucose:indole-3-acetate beta-D-glucosyltransferase: 0.39
- Signal Fold Change AT4G15920, unknown biological function: 23.20
- Signal Fold Change AT4G17220 expressed protein (cytoskeleton organization and biogenesis): 2.48
- Signal Fold Change AT4G18340 glycosyl hydrolase: 3.43
- Signal Fold Change AT4G23410 senescence-associated protein: 1.83
- Signal Fold Change AT4G25780, unknown biological function: 9.00
- Signal Fold Change AT4G26010 peroxidase: 0.49
- Signal Fold Change AT4G28085, unknown biological function: 3.16
- Signal Fold Change AT4G31000, unknown biological function: 0.51
- Signal Fold Change AT4G32920, unknown biological function: 2.81
- Signal Fold Change AT4G34560, unknown biological function: 2.51
- Signal Fold Change AT4G34760 auxin-responsive protein: 0.22
- Signal Fold Change AT4G35060 copper chaperone: 3.90
- Signal Fold Change AT4G35150, unknown biological function: 0.31
- Signal Fold Change AT4G36520, unknown biological function: 2.99
- Signal Fold Change AT4G37220 stress-responsive protein: 15.33
- Signal Fold Change AT4G38690, signal transduction, 1-phosphatidylinositol: 3.39
- Signal Fold Change AT4G39210 ADP-glucose pyrophosphorylase: 0.34
- Signal Fold Change AT4G39800 inositol-3-phosphate synthase isozyme 1: 2.69
- Signal Fold Change AT4G39840, unknown biological function: 0.36
- Signal Fold Change AT5G01210, unknown biological function: 0.37
- Signal Fold Change AT5G01300, unknown biological function: 2.28
- Signal Fold Change AT5G02260, cell wall organization and biogenesis, expansin (EXP9): 0.23
- Signal Fold Change AT5G02540 short-chain dehydrogenase: 0.33
- Signal Fold Change AT5G03160 DNAJ heat shock N-terminal domain-containing protein: 2.24
- Signal Fold Change AT5G04080, unknown biological function: 3.07
- Signal Fold Change AT5G05180, unknown biological function: 1.98
- Signal Fold Change AT5G06200, unknown biological function: 1.99
- Signal Fold Change AT5G08240, unknown biological function: 2.56
- Signal Fold Change AT5G08260 serine carboxypeptidase S10 protein: 0.35
- Signal Fold Change AT5G08370 alpha-galactosidase: 3.99
- Signal Fold Change AT5G09980 expressed protein (defense response): 0.28
- Signal Fold Change AT5G10720 sensory transduction histidine kinase: 0.36
- Signal Fold Change AT5G11540, unknown biological function: 6.69
- Signal Fold Change AT5G12170, response to cadmium ion, expressed protein: 0.34
- Signal Fold Change AT5G13870 endo-xyloglucan transferase: 0.19
- Signal Fold Change AT5G13910 AP2/EREBP-like transcription factor: 0.40
- Signal Fold Change AT5G14780 formate dehydrogenase: 0.41
- Signal Fold Change AT5G14920 gibberellin-regulated protein: 0.33
- Signal Fold Change AT5G15290, unknown biological function: 2.99
- Signal Fold Change AT5G15530 biotin carboxyl carrier protein 2: 0.43
- Signal Fold Change AT5G15830 bZIP transcription factor protein: 4.29
- Signal Fold Change AT5G18470, unknown biological function: 0.24
- Signal Fold Change AT5G18670 beta-amylase: 0.63
- Signal Fold Change AT5G18860, unknown biological function: 3.13
- Signal Fold Change AT5G18970, unknown biological function: 3.98
- Signal Fold Change AT5G19890 peroxidase: 0.03
- Signal Fold Change AT5G19930, unknown biological function: 1.84
- Signal Fold Change AT5G20410 monogalactosyldiacylglycerol synthase: 2.86
- Signal Fold Change AT5G22310, unknown biological function: 0.46
- Signal Fold Change AT5G22860 serine carboxypeptidase S28 protein: 3.07
- Signal Fold Change AT5G23750, unknown biological function: 4.93
- Signal Fold Change AT5G24870, unknown biological function: 2.71
- Signal Fold Change AT5G25140 cytochrome P450: 6.66
- Signal Fold Change AT5G25160 zinc finger (C2H2 type) protein: 2.70
- Signal Fold Change AT5G25190 ethylene-responsive element-binding protein: 0.25
- Signal Fold Change AT5G34940, unknown biological function: 0.44
- Signal Fold Change AT5G37300, unknown biological function: 5.67
- Signal Fold Change AT5G38930, unknown biological function: 0.16
- Signal Fold Change AT5G39860 bHLH protein: 4.44
- Signal Fold Change AT5G41900 hydrolase: 4.02
- Signal Fold Change AT5G44410, unknown biological function: 2.89
- Signal Fold Change AT5G44580, unknown biological function: 0.14
- Signal Fold Change AT5G46890 lipid transfer protein: 3.10
- Signal Fold Change AT5G47240, unknown biological function: 8.92
- Signal Fold Change AT5G47330 palmitoyl protein thioesterase protein: 2.34
- Signal Fold Change AT5G47450 major intrinsic protein: 2.81
- Signal Fold Change AT5G47950, unknown biological function: 4.37
- Signal Fold Change AT5G48490 lipid transfer protein: 3.78
- Signal Fold Change AT5G48900, unknown biological function: 0.58
- Signal Fold Change AT5G49900, unknown biological function: 3.82
- Signal Fold Change AT5G50720 ABA-responsive protein (HVA22e): 2.97
- Signal Fold Change AT5G52120 SKP1 interacting partner 3 protein: 11.57
- Signal Fold Change AT5G53190, unknown biological function: 7.32
- Signal Fold Change AT5G53830, unknown biological function: 0.30
- Signal Fold Change AT5G56320, cell wall organization and biogenesis, expansin (EXP14): 4.57
- Signal Fold Change AT5G58660, unknown biological function: 0.40
- Signal Fold Change AT5G59540 oxidoreductase: 0.34
- Signal Fold Change AT5G63450 cytochrome P450: 16.44
- Signal Fold Change AT5G63650 serine/threonine protein kinase: 0.59
- Signal Fold Change AT5G65970 seven transmembrane MLO protein: 2.84
- Signal Fold Change AT5G66310, microtubule-based movement, kinesin motor protein: 0.48
- Signal Fold Change AT5G66400 dehydrin (RAB18): 1.10
- Signal Fold Change AT5G66440, unknown biological function: 0.32
- Signal Fold Change AT5G66460 (1-4)-beta-mannan endohydrolase: 0.52
- Signal Fold Change AT5G66780, unknown biological function: 1.48
